Experimental data published in patent US10195204B2, “Methods of treating hemoglobinopathies” (DUKE UNIVERSITY, priority 2011, dated 2019).

Assays:
Format in all cases: cell-based, human
[1] = system: SS RBC adhesion to HUVECs; test: Flow chamber adhesion of SS RBCs to non-activated HUVECs; conditions: for mean decrease in SS RBC adhesion after 30 min exposure: 30 min vs 1 min epinephrine
Description: Cells were then washed three times with 5 ml PBS with Ca^2+ and Mg^2+. Prior to adhesion assays, washed treated SS RBCs were labeled with PKH 26 red fluorescent cell linker kit (Sigma-Aldrich, St. Louis, Mo.), following the manufacturer's instructions. […] The flow chamber was mounted on the stage of an inverted phase contrast microscope (Diaphot, Nikon Inc., Melville, N.Y.) connected to a thermoplate (Tokai Hit Co., Ltd., Japan) set at 37° C. […] Before exposure to flow, a minimum of three fields at each of seven different locations along a line oriented normal to future flow were examined for the total number of fluorescent cells. Fluid flow (HBSS with Ca^2+, Mg^2+) was then started using a calibrated syringe pump. After exposure to flow, the fields were again examined and the number of adherent cells counted. The fraction of adherent cells was presented as (number of cells attached after exposure to flow)/(cells present per field before flow). The wall shear stress was calculated as: [formula] τw=wall shear stress (dyne/cm^2); Q=volumetric flow rate (cm^3/s); μ is media viscosity, w is the width of the flow channel, and H(x) is the height of the flow chamber as a function of position along the microscope slide. Several investigators have shown that blood flow in small vessels may be continuous, with shear stresses of 1-2 dynes/cm^2, or flow may be intermittent. Our data were obtained using both intermittent and continuous flow conditions.

[2] = system: AA RBC membrane ghost phosphopeptides; test: Label-free quantitative phosphoproteomic analysis of normal (AA) RBC membrane ghosts
Description: Ghosted RBCs were spun at 14,000 rpm for 15 min at 4° C. to pellet membranes. Membrane pellets were washed with 1 mL 50 mM ammonium bicarbonate (pH 8.0) with vortexing and were then spun at 14,000 rpm for 30 min at 4° C. The supernatant was then removed and 500 μL of 50 mM ammonium bicarbonate with μL 0.2% acid-labile surfactant (ALS-1) in 50 mM ammonium bicarbonate (pH 8.0) was added. Samples were subjected to probe sonication three-times for 5 sec with cooling on ice between and insoluble material was cleared by centrifugation at 14,000 rpm for 30 mins at 4° C. Samples were normalized to approximately 2 μg/μl following a micro-Bradford assay (Pierce Bioscience), and were reduced with a final concentration of 10 mM dithiothreitol at 80° C. for 20 min. Samples were then alkylated with a final concentration of 20 mM iodoacetamide at room temperature for 45 min and trypsin was added to a final ratio of 1-to-50 (w/w) enzyme-to-protein and allowed to digest at 37° C. for 18 hr. To remove ALS-1, samples were acidified to pH 2.0 with neat TFA, incubated at 60° C. for 2 hrs and spun at 14,000 rpm to remove hydrolyzed ALS-1. Samples were either subjected directly to LC-MS analysis or subjected to a TiO2 based phosphopeptide enriched protocol.
To enrich for phosphorylated peptides prior to LC-MS analysis, either 1,125 μg and 970 μg of total digested protein from RBC ghosts co-incubated with recombinant active ERK2 experiments and experiments using epinephrine-treated cells, respectively, were brought to near dryness using vacuum centrifugation and then resuspended in 200 μL of 80% acetonitrile, 1% TFA, 50 mg/ml MassPrep Enhancer (pH 2.5) (Waters Corp. Milford, Mass.). Samples were loaded onto an in-house packed TiO2 spin column (Protea Biosciences) with a 562 μg or 485 μg binding capacity for active ERK2 treated or epinephrine treated experiments, respectively. Samples were washed twice with 200 μL 80% acetonitrile, 1% TFA, 50 mg/ml MassPrep Enhancer (pH 2.5) followed by two washes with 200 μL 80% acetonitrile, 1% TFA (pH 2.5). Retained peptides were eluted twice with 100 μL 20% acetonitrile, 5% aqueous ammonia (pH 10.0), acidified to pH 3 with neat formic acid and then brought to dryness using vacuum centrifugation. […]
MS data from each phosphopeptide enriched sample was acquired on a Thermo LTQ-Orbitrap XL mass spectrometer operating in positive-ion mode with an electrospray voltage of 2.0 kV with real-time lockmass correction on ambiant polycyclodimethylsiloxane (m/z 445.120025) enabled. […] Each sample was analyzed four-times, one of which was used for additional qualitative identifications only and was not included in the quantitative analysis, with product ions above a threshold of 500 counts were acquired for the top 5 most intense ions in the linear ion trap. […]

[3] = system: ERK1/2 phosphorylation in SS RBCs; test: ERK1/2 phosphorylation in SS RBCs, Western blot (phosphoERK normalized to total ERK)
Description: Aliquots of packed RBCs were treated with various reagents to affect cAMP signaling or protein phosphorylation. […] Treated RBCs were then washed 5 times with 4 ml PBS with Ca^2+ and Mg^2+. Normal RBCs were used as controls. Prior to adhesion assays, treated RBCs were labeled with PKH 26 red fluorescent cell linker kit (Sigma), following the manufacturer's instructions.
Treated packed RBCs were lysed with hypotonic buffer (5 mM Na2HPO4+1 mM EDTA+0.1% NaN3, pH 8) containing 2 mM phenylmethylsulphonylfluoride (PMSF, Sigma), phosphatase inhibitor cocktail (Sigma) and protease inhibitor cocktail (Sigma). Protein separation by polyacrylamide gel electrophoresis using equal amounts of total RBC membrane ghost proteins per lane, after correcting total protein measurements for residual hemoglobin content, and Western blot^19 using the appropriate Ab were then performed. Mouse 3T3/A31 fibroblast lysate was used as a ERK1/2 positive control for immunoblots. For total ERK1/2, membranes blotted with anti-phosphoERK Ab were stripped and reexposed to Western blotting using anti-ERK1/2 Ab. Bands were analyzed densitometrically using ImageJ software downloaded from the NIH website. PhosphoERK1/2 data were normalized according to total ERK1/2 and are presented as fold change in ERK phosphorylation.

[4] = shear stress 2 dynes/cm^2, intermittent flow

Compound | mean decrease in SS RBC adhesion after 30 min exposure ([1]; constant flow) [%] | mean decrease in SS RBC adhesion after 30 min exposure ([1]; intermittent flow) [%] | effect on SS RBC adhesion to HUVECs [1, 4] | change in phosphorylation of the CAP1 serine ([2]; AA RBCs, epinephrine 30 min vs 1 min) | ERK phosphorylation vs 1 min exposure [3] | ERK phosphorylation vs sham-treated [3] | fold increase in ERK phosphorylation [3] [fold] | increase in ERK phosphorylation above basal levels [3] [fold] | patients whose SS RBCs exhibited more than 1.5-fold elevation in ERK phosphorylation (responders) [3] [%] | inhibition of SS RBC adhesion to non-activated HUVECs vs sham-treated SS RBCs ([1]; U0126 alone) [%] | inhibition of forskolin-increased SS RBC adhesion to HUVECs ([1]; shear stress 2 dynes/cm^2, compared to forskolin alone) [%] | effect on epinephrine-induced SS RBC adhesion to HUVECs [1, 4] | effect on Ser540/Ser542 doubly phosphorylated peptide within protein 4.1 ([2]; AA RBCs treated with U0126) | effect on forskolin-induced ERK1/2 phosphorylation ([3]; SS RBCs) | effect on epinephrine-induced ERK1/2 phosphorylation ([3]; SS RBCs pre-incubated with inhibitor, then 20 nM epinephrine 1 min) | effect on PTx-induced ERK phosphorylation ([3]; SS RBCs, 2 μg/ml PTx)
CNC[C@H](O)c1ccc(O)c(O)c1 [epinephrine] | 73±4.7 | 56±1.5 | significantly up-regulated | +1.4 fold | decreased | markedly increased | 2.1±0.1 | 2±0.17 | 40 |  |  |  |  |  |  | 
N#CC(=C(/N)Sc1ccccc1N)/C(C#N)=C(\N)Sc1ccccc1N [U0126] |  |  |  |  |  |  |  |  |  | 91±4.6 | 83±4 | completely inhibited | did not induce a decrease | prevented | significantly inhibited | blocked
